Patent US8426447B2, “Spiro-tricyclic ring compounds as beta-secretase modulators and methods of use” (Amgen Inc., priority 2008, dated 2013)
pIC50: −log10 of the molar value.

Columns and labels:
[1] = target: T1, BACE1 (Homo sapiens, UniProt P56817); assay: In Vitro BACE Cell-based Assay (HEK cell assay): Aβ40 in conditioned medium of cells stably expressing Amyloid Precursor Protein, sandwich ELISA
In short: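 Read-out is time-resolved fluorescence of Aβ40 in supernatant, captured by pAb40 and detected with biotinylated 6E10 plus Streptavidin-Europium. Cells stably expressing APP received compounds for 24 h over 10 concentrations starting at 100 μM or 10 μM, final DMSO 0.1%.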

[2] = target: T1, BACE1; assay: In Vitro Enzymatic BACE FRET (Fluorescence Resonance Energy Transfer) Assay; type: biochemical
In short: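 One-hour incubation initiated by 50 nM quenched FRET peptide spanning the BACE cleavage site, in 0.05 M acetate (pH 4.2), 100 uM genapol, 10% DMSO final. Tris addition neutralizes pH to end the reaction before fluorescence measurement.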

[3] = Table IV, class symbols, read-out: HEK cell assay
[4] = Table IV, class symbols, read-out: BACE1 FRET assay
[5] = Table III, IC50's in uM ranges, read-out: HEK cell assay
[6] = Table III, IC50's in uM ranges, read-out: BACE1 FRET assay
[7] = HEK cell-based assay, Aβ40 in conditioned medium, IC50 class symbols, read-out: HEK cell assay
[8] = in vitro BACE FRET enzyme assay, IC50 class symbols, read-out: BACE1 FRET assay
[9] = HEK cells, read-out: HEK cell assay

T1 sequence (P56817 46-501, species assumed): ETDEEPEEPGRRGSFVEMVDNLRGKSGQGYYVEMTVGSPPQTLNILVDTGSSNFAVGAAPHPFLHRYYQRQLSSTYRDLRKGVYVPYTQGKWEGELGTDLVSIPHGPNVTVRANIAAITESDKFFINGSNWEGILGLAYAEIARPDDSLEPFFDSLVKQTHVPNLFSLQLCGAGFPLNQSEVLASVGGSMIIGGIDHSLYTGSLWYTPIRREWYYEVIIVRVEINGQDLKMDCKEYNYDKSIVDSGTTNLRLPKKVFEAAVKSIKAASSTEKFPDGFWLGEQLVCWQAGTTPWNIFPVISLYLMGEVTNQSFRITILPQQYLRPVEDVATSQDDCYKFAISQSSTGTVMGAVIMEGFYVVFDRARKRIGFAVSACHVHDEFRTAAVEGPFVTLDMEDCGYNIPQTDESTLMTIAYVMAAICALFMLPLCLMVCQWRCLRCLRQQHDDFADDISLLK

SMILES	pIC50 [1, 3]	pIC50 [2, 4]	pIC50 ([2]; read-out: BACE1 FRET assay)	also measured
CC(C)(C)COc1ccc2c(c1)[C@]1(COC(N)=N1)c1cc(-c3cccc(S(C)(=O)=O)c3)ccc1O2 [compound 915]	5.30 to 6.00	> 7.00		
N#Cc1ccc(-c2ccc3c(c2)[C@@]2(COC(N)=N2)c2cc(-c4cccnc4)ccc2O3)cn1 [compound 683]			> 7.00	pIC50 ([1]; read-out: HEK cell assay): > 7.00
NC1=N[C@@]2(CO1)c1cc(-c3cccnc3F)ccc1Oc1cnc(C3=CCCCO3)cc12 [compound 371]				IC50 ([1]; HEK cell assay (uM)): < 0.1 µM; IC50 ([2]; BACE1 FRET assay (uM)): < 0.1 µM
CC(C)(C#N)COc1ccc2c(c1)[C@]1(COC(N)=N1)c1cc(C#CC3CC3)ccc1O2 [compound 178]				IC50 [1, 5]: 0.1 to 1 µM; IC50 [2, 6]: < 0.1 µM
CC(C)C(C)(O)COc1ccc2c(c1)[C@]1(COC(N)=N1)c1cc(-c3cccnc3)ccc1O2 (stereo partly drawn) [compound 867]	> 7.00	> 7.00		
COc1cc(F)c2c(c1)[C@@]1(COC(N)=N1)c1cc(-c3cncnc3)cnc1O2 [compound 585]	< 5.30	< 5.30		
CC(C)(C)/C=C/c1ccc2c(n1)[C@]1(COC(N)=N1)c1cc(-c3cccnc3)ccc1O2 [compound 398]				pIC50 [1, 7]: > 7.00; pIC50 [2, 8]: > 7.00
COc1cccc(-c2ccc3c(c2)C2(COC(N)=N2)c2ccc(C)cc2O3)c1F (stereo not drawn) [Example 30, 2′-(2-fluoro-3-methoxyphenyl)-6′-methylspiro[1,3-oxazole-4,9′-xanthen]-2-amine]				pIC50 ([1]; Table 1, Aβ40, 24 h incubation, read-out: HEK cell assay): < 5.30; pIC50 ([2]; Table 1, read-out: BACE1 FRET assay): < 5.30
CC(C)(C)COc1ccc2c(c1)[C@]1(COC(N)=N1)c1cc(C3CCOCC3)ccc1O2 [compound 747]			6.00 to 7.00	pIC50 ([1]; read-out: HEK cell assay): 5.30 to 6.00
CC(C)(C)COc1ccc2c(c1)[C@]1(COC(N)=N1)c1cc(C(=O)O)ccc1O2 [compound 861]	< 5.30	5.30 to 6.00		
Cn1cc(-c2cc3c(cn2)Oc2ccc(-c4cccc(Cl)c4)cc2[C@@]32COC(N)=N2)cn1 [compound 329]				pIC50 [1, 7]: > 7.00; pIC50 [2, 8]: > 7.00
CC(=O)COc1ccc2c(c1)[C@]1(COC(N)=N1)c1cc(-c3cccnc3)cnc1O2 [compound 865]	5.30 to 6.00	5.30 to 6.00		
NC1=N[C@]2(CO1)c1cc(C3=CCOCC3)ccc1Oc1cnc(-c3ccccc3F)cc12 [compound 498]			> 7.00	pIC50 [1, 9]: 6.00 to 7.00
CC(C)(O)COc1ccc2c(c1)[C@]1(COC(N)=N1)c1cc(Br)ccc1O2 [compound 210]				IC50 [1, 5]: 1 to 5 µM; IC50 [2, 6]: 1 to 5 µM
NC1=N[C@]2(CO1)c1cc(-c3cncnc3)ccc1Oc1c(F)cccc12 [compound 552]	< 5.30	< 5.30		
Cn1cnc(-c2ccc3c(c2)[C@]2(COC(N)=N2)c2cc(-c4cccnc4)ccc2O3)c1 [compound 554]	> 7.00	6.00 to 7.00		
COC(C)(C)C#Cc1cnc2c(c1)[C@@]1(COC(N)=N1)c1cc(-c3ccncc3)ccc1O2 [compound 692]			< 5.30	pIC50 ([1]; read-out: HEK cell assay): < 5.30
COc1ccc2c(c1)[C@]1(N=C(N)O[C@@H]1C)c1cc(-c3cncnc3)ccc1O2 (single isomer, unassigned) [Example 125c]				IC50 [1, 5]: > 5 µM; IC50 [2, 6]: > 5 µM
CC1(COc2cnc3c(c2)[C@]2(COC(N)=N2)c2cc(-c4c(F)cccc4F)ccc2O3)COC1 [compound 411]				pIC50 [1, 7]: > 7.00; pIC50 [2, 8]: > 7.00
COC(C)(C)C#Cc1cnc2c(c1)[C@@]1(COC(N)=N1)c1cc(-c3cncc(F)c3)ccc1O2 [compound 699]			6.00 to 7.00	pIC50 ([1]; read-out: HEK cell assay): 5.30 to 6.00
CC(C)N1CC=C(c2ccc3c(c2)[C@]2(COC(N)=N2)c2cc(-c4cncnc4)ccc2O3)CC1 [compound 714]			6.00 to 7.00	pIC50 ([1]; read-out: HEK cell assay): > 7.00
COC(=O)CCc1ccc2c(c1)[C@]1(COC(N)=N1)c1cc(-c3cncnc3)ccc1O2 [compound 877]	6.00 to 7.00	6.00 to 7.00		
Cc1n[nH]cc1-c1ccc2c(c1)[C@@]1(COC(N)=N1)c1cc(OCC(C)(C)C)ccc1O2 [Example 129, (S)-2′-(3-methyl-1H-pyrazol-4-yl)-7′-(neopentyloxy)-5H-spiro[oxazole-4,9′-xanthen]-2-amine 2,2,2-trifluoroacetate]				IC50 [1, 5]: > 5 µM; IC50 [2, 6]: 0.1 to 1 µM
CC(C)(C)COc1ccc2c(c1)[C@]1(COC(N)=N1)c1cc(C3CC3)ccc1O2 [compound 759]			6.00 to 7.00	pIC50 ([1]; read-out: HEK cell assay): 5.30 to 6.00

SMILES	pIC50 [1, 3]	pIC50 [2, 4]	pIC50 ([2]; read-out: BACE1 FRET assay)	also measured
NC1=N[C@@]2(CO1)c1cc(-c3ccccc3F)ccc1Oc1cnc(C3=CCOCC3)cc12 [compound 426]			> 7.00	pIC50 [1, 9]: 6.00 to 7.00
NC1=N[C@]2(CO1)c1cc(OC3CCC3)ccc1Oc1ccc(-c3cccnc3)cc12 [compound 195]				IC50 [1, 5]: 0.1 to 1 µM; IC50 [2, 6]: < 0.1 µM
CC(C)(C)COc1ccc2c(c1)[C@]1(COC(N)=N1)c1cc(-c3ccc(Cl)nc3)ccc1O2 [compound 887]	6.00 to 7.00	> 7.00		
NC1=N[C@@]2(CO1)c1ccccc1Oc1ccc(-c3cnc4ccccc4c3)cc12 [compound 628]	< 5.30	< 5.30		
CC(C)(O)COc1ccc2c(c1Br)[C@]1(COC(N)=N1)c1cc(-c3cccnc3)ccc1O2 [compound 944]			> 7.00	pIC50 ([1]; read-out: HEK cell assay): > 7.00
NC1=N[C@]2(CO1)c1cc(-c3cccnc3)ccc1Oc1ncc(Br)cc12 [compound 174]				IC50 [1, 5]: 0.1 to 1 µM; IC50 [2, 6]: < 0.1 µM
CC(C)(C)OCCOc1ccc2c(c1)[C@]1(COC(N)=N1)c1cc(-c3cncnc3)ccc1O2 [compound 158]				IC50 [1, 5]: < 0.1 µM; IC50 [2, 6]: < 0.1 µM
COc1ccncc1-c1ccc2c(c1)[C@]1(COC(N)=N1)c1cc(OCC(C)(C)C)ccc1O2 [compound 778]			5.30 to 6.00	pIC50 ([1]; read-out: HEK cell assay): 5.30 to 6.00
Cc1ccc(-c2ccc3c(c2)[C@]2(COC(N)=N2)c2cc(-c4cncnc4)ccc2O3)o1 [compound 880]	> 7.00	> 7.00		
CC(C)(C)COc1ccc2c(c1)[C@]1(COC(N)=N1)c1cc(CO)ccc1O2 [compound 828]	5.30 to 6.00	5.30 to 6.00		
CC(=O)c1ccc(-c2ccc3c(c2)[C@]2(COC(N)=N2)c2cc(-c4cncnc4)ccc2O3)cc1 [compound 888]	> 7.00	> 7.00		
NC1=N[C@@]2(CO1)c1cc(-c3cccnc3)ccc1Oc1cnc(C3=CCCCO3)cc12 [compound 729]			> 7.00	pIC50 ([1]; read-out: HEK cell assay): > 7.00
CC(C)(C)CC(=O)c1ccc2c(c1)[C@]1(CSC(N)=N1)c1cc(-c3cncnc3)ccc1O2 [compound 761]			> 7.00	pIC50 ([1]; read-out: HEK cell assay): 6.00 to 7.00
NC1=N[C@]2(CO1)c1cc(OCC3CCOCC3)ccc1Oc1ccc(-c3cccnc3)cc12 [compound 933]			> 7.00	pIC50 ([1]; read-out: HEK cell assay): > 7.00
CC(C)(C)COc1cnc2c(c1)[C@]1(COC(N)=N1)c1cc(Br)ccc1O2 [compound 388]				pIC50 [1, 7]: 5.30 to 6.00; pIC50 [2, 8]: 6.00 to 7.00
CC(C)(C)C#Cc1cnc2c(c1)[C@@]1(COC(N)=N1)c1cc(-c3cncnc3)cc(F)c1O2 [compound 538]	6.00 to 7.00	6.00 to 7.00		
COc1ccc2c(c1)[C@]1(COC(N)=N1)c1c(ccc(-c3cncnc3)c1F)O2 [compound 814]	6.00 to 7.00	> 7.00		
CC1(C)C=C(c2cnc3c(c2)[C@]2(COC(N)=N2)c2cc(-c4cncnc4)ccc2O3)CCO1 [compound 478]			> 7.00	pIC50 [1, 9]: > 7.00
CC(C)(C)COc1cnc2c(c1)[C@]1(COC(N)=N1)c1cc(-c3cncc(F)c3)ccc1O2 [compound 389]				pIC50 [1, 7]: > 7.00; pIC50 [2, 8]: > 7.00
CN(C)c1ncc(-c2ccc3c(c2)[C@@]2(COC(N)=N2)c2cc(OCC(C)(C)C)ccc2O3)cn1 [compound 838]	< 5.30	< 5.30		
NC1=N[C@@]2(CO1)c1cc(-c3cccnc3)ccc1Oc1cnc(N3CCC(=O)CC3)cc12 [compound 442]			> 7.00	pIC50 [1, 9]: > 7.00
COC(=O)/C=C/c1ccc2c(c1)[C@@]1(COC(N)=N1)c1cc(Br)ccc1O2 [compound 169]				IC50 [1, 5]: > 5 µM; IC50 [2, 6]: 1 to 5 µM
CC(C)(C)OC(=O)N1CC=C(c2ccc3c(c2)[C@]2(COC(N)=N2)c2cc(-c4cccnc4)ccc2O3)CC1 [compound 819]	6.00 to 7.00	> 7.00		
CC(C)(C)COc1ccc2c(c1)[C@]1(COC(N)=N1)c1cc(-c3cncnc3O)ccc1O2 [compound 884]	5.30 to 6.00	6.00 to 7.00		
